Data on 18 compounds can be found in patent US20240043404A1 (AbbVie Inc., priority 2009, published 2024).

For the assay, the system named is RS4;11 cells. As to the kind of experiment: RS4;11 cell viability assay (CellTiter Glo).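 Note: acute lymphoblastic leukemia line RS4,11, EC50 derived from percentage of viable cells after treatment relative to untreated controls, cell killing taken as a measure of Bcl-2 inhibition.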 Format: cell-based, human. The settings on record: Homo sapiens, RS4-11, 48 h, 50,000 cells per well, 10% human serum, 48 hours; read-out: RS4; 11 EC50 Values.
Procedure: The acute lymphoblastic leukemia (ALL) cell line RS4;11 was used as the primary human cell line to assess the cellular activity of Bcl-2 selective agents in vitro and their efficacy in vivo.
Cell cytotoxicity EC50 values were assessed using CellTiter Glo (Promega) according to the manufacturer's recommendations. The EC50 values were determined as a percentage of viable cells following treatment compared to the untreated control cells.
Consider `CC1(C)CCC(CN2CCN(c3ccc(C(=O)NS(=O)(=O)c4ccc(N[C@@H]5CCN(C6CC6)C5)c([N+](=O)[O-])c4)c(Oc4cnc5[nH]ccc5c4)c3)CC2)=C(c2ccc(Cl)cc2)C1` [Example 144, 4-(4-{[2-(4-chlorophenyl)-4,4-dimethylcyclohex-1-en-1-yl]methyl}piperazin-1-yl)-N-[(4-{[(3R)-1-cyclopropylpyrrolidin-3-yl]amino}-3-nitrophenyl)sulfonyl]-2-(1H-pyrrolo[2,3-b]pyridin-5-yloxy)benzamide], for which the EC50 was determined as 21.2 nM.

Turning to `CC1(C)CCC(CN2CCN(c3ccc(C(=O)NS(=O)(=O)c4ccc(NC5CCN(C6CC6)CC5)c([N+](=O)[O-])c4)c(Oc4cnc5[nH]ccc5c4)c3)CC2)=C(c2ccc(Cl)cc2)C1` [Example 98, 4-(4-{[2-(4-chlorophenyl)-4,4-dimethylcyclohex-1-en-1-yl]methyl}piperazin-1-yl)-N-({4-[(1-cyclopropylpiperidin-4-yl)amino]-3-nitrophenyl}sulfonyl)-2-(1H-pyrrolo[2,3-b]pyridin-5-yloxy)benzamide], the EC50 turned out to be 22.9 nM.

Consider `CN1CCC[C@H]1C(=O)N1CCC(COc2ccc(S(=O)(=O)NC(=O)c3ccc(N4CCN(CC5=C(c6ccc(Cl)cc6)CC(C)(C)CC5)CC4)cc3Oc3cnc4[nH]ccc4c3)cc2Cl)CC1` [Example 312, N-[(3-chloro-4-{[1-(1-methyl-L-prolyl)piperidin-4-yl]methoxy}phenyl)sulfonyl]-4-(4-{[2-(4-chlorophenyl)-4,4-dimethylcyclohex-1-en-1-yl]methyl}piperazin-1-yl)-2-(1H-pyrrolo[2,3-b]pyridin-5-yloxy)benzamide], for which the EC50 came out at 16.2 nM.

For the compound `CN1CCC(COc2ccc(S(=O)(=O)NC(=O)c3ccc(N4CCN(CC5=C(c6ccc(Cl)cc6)CC(C)(C)CC5)CC4)cc3Oc3cnc4[nH]ccc4c3)cc2[N+](=O)[O-])CC1` [Example 48, 4-(4-{[2-(4-chlorophenyl)-4,4-dimethylcyclohex-1-en-1-yl]methyl}piperazin-1-yl)-N-({4-[(1-methylpiperidin-4-yl)methoxy]-3-nitrophenyl}sulfonyl)-2-(1H-pyrrolo[2,3-b]pyridin-5-yloxy)benzamide], the EC50 came out at 3.33 nM.

On to `CO[C@H]1CC[C@H](COc2ncc(S(=O)(=O)NC(=O)c3ccc(N4CCN(CC5=C(c6ccc(Cl)cc6)CC(C)(C)CC5)CC4)cc3Oc3cnc4[nH]ccc4c3)cc2Cl)CC1` [Example 210, Trans-N-({5-chloro-6-[(4-methoxycyclohexyl)methoxy]pyridin-3-yl}sulfonyl)-4-(4-{[2-(4-chlorophenyl)-4,4-dimethylcyclohex-1-en-1-yl]methyl}piperazin-1-yl)-2-(1H-pyrrolo[2,3-b]pyridin-5-yloxy)benzamide], for which the EC50 was 60.2 nM.

On to `CCN(C)C(=O)N1CCOC(CNc2ccc(S(=O)(=O)NC(=O)c3ccc(N4CCN(CC5=C(c6ccc(Cl)cc6)CC(C)(C)CC5)CC4)cc3Oc3cnc4[nH]ccc4c3)cc2[N+](=O)[O-])C1` (stereo not drawn) [Example 318, 2-{[(4-{[4-(4-{[2-(4-chlorophenyl)-4,4-dimethylcyclohex-1-en-1-yl]methyl}piperazin-1-yl)-2-(1H-pyrrolo[2,3-b]pyridin-5-yloxy)benzoyl]sulfamoyl}-2-nitrophenyl)amino]methyl}-N-ethyl-N-methylmorpholine-4-carboxamide], for which the EC50 was 11.6 nM.

In the case of `CC(C)N1CCC(Nc2ccc(S(=O)(=O)NC(=O)c3ccc(N4CCN(CC5=C(c6ccc(Cl)cc6)CC(C)(C)CC5)CC4)cc3Oc3cnc4[nH]ccc4c3)cc2[N+](=O)[O-])CC1` [Example 226, 4-(4-{[2-(4-chlorophenyl)-4,4-dimethylcyclohex-1-en-1-yl]methyl}piperazin-1-yl)-N-({4-[(1-isopropylpiperidin-4-yl)amino]-3-nitrophenyl}sulfonyl)-2-(1H-pyrrolo[2,3-b]pyridin-5-yloxy)benzamide], the EC50 turned out to be 118 nM.

As to `CC1(C)CCC(CN2CCN(c3ccc(C(=O)NS(=O)(=O)c4cnc(OCC5COCCO5)c(C#N)c4)c(Oc4cnc5[nH]ccc5c4)c3)CC2)=C(c2ccc(Cl)cc2)C1` (stereo not drawn) [Example 49, 4-(4-{[2-(4-chlorophenyl)-4,4-dimethylcyclohex-1-en-1-yl]methyl}piperazin-1-yl)-N-{[5-cyano-6-(1,4-dioxan-2-ylmethoxy)pyridin-3-yl]sulfonyl}-2-(1H-pyrrolo[2,3-b]pyridin-5-yloxy)benzamide], the EC50 stood at 352 nM.

Regarding `CC1(C)CCC(CN2CCN(c3ccc(C(=O)NS(=O)(=O)c4ccc(OCC5CCCC(=O)C5)c([N+](=O)[O-])c4)c(Oc4cnc5[nH]ccc5c4)c3)CC2)=C(c2ccc(Cl)cc2)C1` (stereo not drawn) [Example 205, 4-(4-{[2-(4-chlorophenyl)-4,4-dimethylcyclohex-1-en-1-yl]methyl}piperazin-1-yl)-N-({3-nitro-4-[(3-oxocyclohexyl)methoxy]phenyl}sulfonyl)-2-(1H-pyrrolo[2,3-b]pyridin-5-yloxy)benzamide], the EC50 stood at 10.6 nM.

Consider `CC1(C)CCC(CN2CCN(c3ccc(C(=O)NS(=O)(=O)c4cnc(OCC5CCOCC5)c(C#N)c4)c(Oc4cnc5[nH]ccc5c4)c3)CC2)=C(c2ccc(Cl)cc2)C1` [Example 36, 4-(4-{[2-(4-chlorophenyl)-4,4-dimethylcyclohex-1-en-1-yl]methyl}piperazin-1-yl)-N-{[5-cyano-6-(tetrahydro-2H-pyran-4-ylmethoxy)pyridin-3-yl]sulfonyl}-2-(1H-pyrrolo[2,3-b]pyridin-5-yloxy)benzamide], for which the EC50 turned out to be 181 nM.

`CC1(C)CCC(CN2CCN(c3ccc(C(=O)NS(=O)(=O)c4ccc(N[C@@H]5CCN(C6CCOCC6)C5)c([N+](=O)[O-])c4)c(Oc4cnc5[nH]ccc5c4)c3)CC2)=C(c2ccc(Cl)cc2)C1` [Example 130, 4-(4-{[2-(4-chlorophenyl)-4,4-dimethylcyclohex-1-en-1-yl]methyl}piperazin-1-yl)-N-[(3-nitro-4-{[(3R)-1-tetrahydro-2H-pyran-4-ylpyrrolidin-3-yl]amino}phenyl)sulfonyl]-2-(1H-pyrrolo[2,3-b]pyridin-5-yloxy)benzamide]: the EC50 is 10.6 nM.

Turning to `COCC(=O)N1CCC(COc2ccc(S(=O)(=O)NC(=O)c3ccc(N4CCN(CC5=C(c6ccc(Cl)cc6)CC(C)(C)CC5)CC4)cc3Oc3cnc4[nH]ccc4c3)cc2Cl)CC1` [Example 294, N-[(3-chloro-4-{[1-(methoxyacetyl)piperidin-4-yl]methoxy}phenyl)sulfonyl]-4-(4-{[2-(4-chlorophenyl)-4,4-dimethylcyclohex-1-en-1-yl]methyl}piperazin-1-yl)-2-(1H-pyrrolo[2,3-b]pyridin-5-yloxy)benzamide], the EC50 worked out at 125 nM.

Consider `CC1(C)CCC(CN2CCN(c3ccc(C(=O)NS(=O)(=O)c4ccc(OCC5CCOCC5)c(C#N)c4)c(Oc4cnc5[nH]ccc5c4)c3)CC2)=C(c2ccc(Cl)cc2)C1` [Example 284, 4-(4-{[2-(4-chlorophenyl)-4,4-dimethylcyclohex-1-en-1-yl]methyl}piperazin-1-yl)-N-{[3-cyano-4-(tetrahydro-2H-pyran-4-ylmethoxy)phenyl]sulfonyl}-2-(1H-pyrrolo[2,3-b]pyridin-5-yloxy)benzamide], for which the EC50 worked out at 162 nM.

With `CN1CCOC(CNc2ccc(S(=O)(=O)NC(=O)c3ccc(N4CCN(CC5=C(c6ccc(Cl)cc6)CC(C)(C)CC5)CC4)cc3Oc3cnc4[nH]ccc4c3)cc2[N+](=O)[O-])C1` (stereo not drawn) [Example 134, 4-(4-{[2-(4-chlorophenyl)-4,4-dimethylcyclohex-1-en-1-yl]methyl}piperazin-1-yl)-N-[(4-{[(4-methylmorpholin-2-yl)methyl]amino}-3-nitrophenyl)sulfonyl]-2-(1H-pyrrolo[2,3-b]pyridin-5-yloxy)benzamide], the EC50 is 2.51 nM.

Turning to `CC1(C)CCC(CN2CCN(c3ccc(C(=O)NS(=O)(=O)c4ccc(OC[C@@H]5CN(C6COC6)C[C@H]5CF)c([N+](=O)[O-])c4)c(Oc4cnc5[nH]ccc5c4)c3)CC2)=C(c2ccc(Cl)cc2)C1` (relative stereo) [Example 137, 4-(4-{[2-(4-chlorophenyl)-4,4-dimethylcyclohex-1-en-1-yl]methyl}piperazin-1-yl)-N-[(4-{[trans-4-(fluoromethyl)-1-oxetan-3-ylpyrrolidin-3-yl]methoxy}-3-nitrophenyl)sulfonyl]-2-(1H-pyrrolo[2,3-b]pyridin-5-yloxy)benzamide], the EC50 is 12.7 nM.

Turning to `CC1(C)CCC(CN2CCN(c3ccc(C(=O)NS(=O)(=O)c4ccc(NCc5ccc(O)cc5)c([N+](=O)[O-])c4)c(Oc4cnc5[nH]ccc5c4)c3)CC2)=C(c2ccc(Cl)cc2)C1` [Example 185, 4-(4-{[2-(4-chlorophenyl)-4,4-dimethylcyclohex-1-en-1-yl]methyl}piperazin-1-yl)-N-({4-[(4-hydroxybenzyl)amino]-3-nitrophenyl}sulfonyl)-2-(1H-pyrrolo[2,3-b]pyridin-5-yloxy)benzamide], the EC50 amounted to 27.5 nM.

As to `CC1(C)CCC(CN2CCN(c3ccc(C(=O)NS(=O)(=O)c4cnc(OCC5CCOCC5)c(C(F)(F)F)c4)c(Oc4cnc5[nH]ccc5c4)c3)CC2)=C(c2ccc(Cl)cc2)C1` [Example 297, 4-(4-{[2-(4-chlorophenyl)-4,4-dimethylcyclohex-1-en-1-yl]methyl}piperazin-1-yl)-2-(1H-pyrrolo[2,3-b]pyridin-5-yloxy)-N-{[6-(tetrahydro-2H-pyran-4-ylmethoxy)-5-(trifluoromethyl)pyridin-3-yl]sulfonyl}benzamide], the EC50 came out at 592 nM.

Take `CC1(C)CCC(CN2CCN(c3ccc(C(=O)NS(=O)(=O)c4ccc(NCC5(F)CCOCC5)c([N+](=O)[O-])c4)c(Oc4cnc5[nH]ccc5c4)c3)CC2)=C(c2ccc(Cl)cc2)C1` [Example 138, 4-(4-{[2-(4-chlorophenyl)-4,4-dimethylcyclohex-1-en-1-yl]methyl}piperazin-1-yl)-N-[(4-{[(4-fluorotetrahydro-2H-pyran-4-yl)methyl]amino}-3-nitrophenyl)sulfonyl]-2-(1H-pyrrolo[2,3-b]pyridin-5-yloxy)benzamide]: the EC50 was 1.52 nM.
